Measurements from BindingDB's records for doi:10.1002/cbic.200600287 (Mcgill University, 2007).

What was measured:
Experiment in all cases: PTP Assay
[1] = target: Tyrosine-protein phosphatase non-receptor type 13 (Homo sapiens, UniProt Q12923); details: pH 7; 25 °C
Method: (§1) PTP assay were conducted at 25 C in 96-well plates. Reaction rates were determined using a Variokan plate reader from Thermo Electron. For assay pH 7.0 absorbance was measured every 30s over 10 min and the reaction rates were calculated by linear regression. Because the p-nitrophenol product does not absorb at pH 6.0.

[2] = target: Receptor-type tyrosine-protein phosphatase F (Homo sapiens, UniProt P10586); details: pH 6; 25 °C
Chain of Receptor-type tyrosine-protein phosphatase F (P10586 whole entry): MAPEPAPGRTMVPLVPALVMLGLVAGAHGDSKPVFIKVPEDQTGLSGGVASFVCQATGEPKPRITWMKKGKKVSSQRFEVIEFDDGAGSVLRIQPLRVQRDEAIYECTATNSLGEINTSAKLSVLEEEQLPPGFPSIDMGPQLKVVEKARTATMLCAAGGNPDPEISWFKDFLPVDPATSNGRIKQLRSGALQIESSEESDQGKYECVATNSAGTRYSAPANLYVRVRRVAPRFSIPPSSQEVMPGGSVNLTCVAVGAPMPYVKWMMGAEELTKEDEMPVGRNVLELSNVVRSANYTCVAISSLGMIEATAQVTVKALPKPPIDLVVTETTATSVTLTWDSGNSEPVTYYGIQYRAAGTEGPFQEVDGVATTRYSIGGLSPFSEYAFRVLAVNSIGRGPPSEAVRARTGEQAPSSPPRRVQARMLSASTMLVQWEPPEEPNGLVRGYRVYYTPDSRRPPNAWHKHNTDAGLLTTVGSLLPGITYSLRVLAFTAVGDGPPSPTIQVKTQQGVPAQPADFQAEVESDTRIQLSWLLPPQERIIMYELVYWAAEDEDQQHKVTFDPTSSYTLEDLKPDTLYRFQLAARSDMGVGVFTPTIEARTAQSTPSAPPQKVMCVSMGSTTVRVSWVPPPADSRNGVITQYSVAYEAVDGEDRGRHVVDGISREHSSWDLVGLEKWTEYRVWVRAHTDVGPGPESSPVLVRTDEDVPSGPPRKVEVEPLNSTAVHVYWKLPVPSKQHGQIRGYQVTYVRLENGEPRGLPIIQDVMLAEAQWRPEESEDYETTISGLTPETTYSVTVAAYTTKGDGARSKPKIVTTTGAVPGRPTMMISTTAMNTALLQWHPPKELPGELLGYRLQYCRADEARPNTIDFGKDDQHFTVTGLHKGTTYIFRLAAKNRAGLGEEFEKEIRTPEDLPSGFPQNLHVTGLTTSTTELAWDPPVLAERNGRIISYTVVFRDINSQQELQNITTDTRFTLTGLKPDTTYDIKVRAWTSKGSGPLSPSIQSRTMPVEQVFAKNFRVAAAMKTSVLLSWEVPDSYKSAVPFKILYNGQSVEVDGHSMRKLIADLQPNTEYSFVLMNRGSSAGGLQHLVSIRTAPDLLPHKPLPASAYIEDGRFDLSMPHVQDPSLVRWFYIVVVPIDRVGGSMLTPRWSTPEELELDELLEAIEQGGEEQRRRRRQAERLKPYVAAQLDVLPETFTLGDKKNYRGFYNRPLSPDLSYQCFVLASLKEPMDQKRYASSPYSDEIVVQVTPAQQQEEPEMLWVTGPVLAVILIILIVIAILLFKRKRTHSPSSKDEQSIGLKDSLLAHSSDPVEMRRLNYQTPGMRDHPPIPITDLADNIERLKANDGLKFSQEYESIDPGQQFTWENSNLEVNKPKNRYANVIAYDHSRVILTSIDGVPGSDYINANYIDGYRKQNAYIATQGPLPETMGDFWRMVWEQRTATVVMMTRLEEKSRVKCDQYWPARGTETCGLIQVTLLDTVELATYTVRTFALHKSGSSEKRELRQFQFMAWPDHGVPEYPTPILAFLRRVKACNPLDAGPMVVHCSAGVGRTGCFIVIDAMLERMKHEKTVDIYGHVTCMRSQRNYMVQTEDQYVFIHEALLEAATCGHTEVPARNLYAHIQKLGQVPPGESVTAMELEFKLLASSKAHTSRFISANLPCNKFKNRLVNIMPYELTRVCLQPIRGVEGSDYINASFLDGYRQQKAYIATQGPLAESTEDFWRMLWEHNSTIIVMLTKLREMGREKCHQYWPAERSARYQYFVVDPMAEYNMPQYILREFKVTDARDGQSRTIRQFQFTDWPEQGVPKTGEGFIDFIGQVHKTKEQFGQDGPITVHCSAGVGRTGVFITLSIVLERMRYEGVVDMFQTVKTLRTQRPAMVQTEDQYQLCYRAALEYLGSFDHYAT
Method: as §1

[3] = target: T1, Tyrosine-protein phosphatase non-receptor type 2 (Homo sapiens, UniProt P17706); details: pH 7; 25 °C
T1 sequence (P17706 whole entry): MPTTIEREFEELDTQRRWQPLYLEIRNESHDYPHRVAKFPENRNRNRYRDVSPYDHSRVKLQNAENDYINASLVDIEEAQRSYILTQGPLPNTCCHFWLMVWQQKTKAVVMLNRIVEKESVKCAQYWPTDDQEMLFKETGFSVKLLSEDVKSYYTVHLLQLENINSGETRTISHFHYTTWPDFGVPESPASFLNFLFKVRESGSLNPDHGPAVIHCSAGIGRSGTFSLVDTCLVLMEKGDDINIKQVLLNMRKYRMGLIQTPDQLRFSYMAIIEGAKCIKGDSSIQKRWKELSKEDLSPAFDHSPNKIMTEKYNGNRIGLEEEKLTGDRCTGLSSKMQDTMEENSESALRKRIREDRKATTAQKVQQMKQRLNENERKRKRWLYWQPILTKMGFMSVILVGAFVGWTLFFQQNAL
Method: as §1

[4] = target: T2, Tyrosine-protein phosphatase non-receptor type 7 (Homo sapiens, UniProt P35236); details: pH 7; 25 °C
T2 sequence (P35236 whole entry): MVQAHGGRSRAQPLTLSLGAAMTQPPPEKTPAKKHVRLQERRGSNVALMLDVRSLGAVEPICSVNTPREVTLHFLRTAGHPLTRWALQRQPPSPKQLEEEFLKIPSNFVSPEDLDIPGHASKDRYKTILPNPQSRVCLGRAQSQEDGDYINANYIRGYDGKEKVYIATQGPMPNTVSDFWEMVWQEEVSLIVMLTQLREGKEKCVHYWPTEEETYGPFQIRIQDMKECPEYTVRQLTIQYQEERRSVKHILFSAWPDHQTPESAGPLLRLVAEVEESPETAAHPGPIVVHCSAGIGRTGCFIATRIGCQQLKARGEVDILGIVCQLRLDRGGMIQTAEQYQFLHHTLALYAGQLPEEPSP
Method: as §1

[5] = target: T3, Tyrosine-protein phosphatase non-receptor type 1 (Homo sapiens, UniProt P18031); details: 25 °C
T3 sequence (P18031 whole entry): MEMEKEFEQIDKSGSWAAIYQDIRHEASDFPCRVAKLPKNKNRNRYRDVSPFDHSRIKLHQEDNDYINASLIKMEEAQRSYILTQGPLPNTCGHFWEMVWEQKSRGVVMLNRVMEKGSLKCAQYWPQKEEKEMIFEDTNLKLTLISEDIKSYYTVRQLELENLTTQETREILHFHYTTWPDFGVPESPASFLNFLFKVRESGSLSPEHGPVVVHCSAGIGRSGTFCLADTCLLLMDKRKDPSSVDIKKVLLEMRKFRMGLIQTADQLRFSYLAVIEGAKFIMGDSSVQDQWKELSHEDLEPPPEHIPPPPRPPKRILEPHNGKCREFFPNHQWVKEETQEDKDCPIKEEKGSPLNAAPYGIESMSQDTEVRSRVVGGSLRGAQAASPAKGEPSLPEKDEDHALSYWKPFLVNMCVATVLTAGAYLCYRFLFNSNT
Method: as §1

[6] = target: T4, Dual specificity protein phosphatase 22 (Homo sapiens, UniProt Q9NRW4); details: pH 6; 25 °C
T4 sequence (Q9NRW4 whole entry): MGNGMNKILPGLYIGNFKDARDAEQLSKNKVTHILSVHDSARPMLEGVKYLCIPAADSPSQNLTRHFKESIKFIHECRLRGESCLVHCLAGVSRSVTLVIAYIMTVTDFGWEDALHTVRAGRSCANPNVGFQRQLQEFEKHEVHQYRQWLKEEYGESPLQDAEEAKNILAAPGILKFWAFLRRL
Method: as §1

[7] = target: Tyrosine-protein phosphatase non-receptor type 6 (Homo sapiens, UniProt P29350); details: pH 7; 25 °C
Chain of Tyrosine-protein phosphatase non-receptor type 6 (P29350 whole entry): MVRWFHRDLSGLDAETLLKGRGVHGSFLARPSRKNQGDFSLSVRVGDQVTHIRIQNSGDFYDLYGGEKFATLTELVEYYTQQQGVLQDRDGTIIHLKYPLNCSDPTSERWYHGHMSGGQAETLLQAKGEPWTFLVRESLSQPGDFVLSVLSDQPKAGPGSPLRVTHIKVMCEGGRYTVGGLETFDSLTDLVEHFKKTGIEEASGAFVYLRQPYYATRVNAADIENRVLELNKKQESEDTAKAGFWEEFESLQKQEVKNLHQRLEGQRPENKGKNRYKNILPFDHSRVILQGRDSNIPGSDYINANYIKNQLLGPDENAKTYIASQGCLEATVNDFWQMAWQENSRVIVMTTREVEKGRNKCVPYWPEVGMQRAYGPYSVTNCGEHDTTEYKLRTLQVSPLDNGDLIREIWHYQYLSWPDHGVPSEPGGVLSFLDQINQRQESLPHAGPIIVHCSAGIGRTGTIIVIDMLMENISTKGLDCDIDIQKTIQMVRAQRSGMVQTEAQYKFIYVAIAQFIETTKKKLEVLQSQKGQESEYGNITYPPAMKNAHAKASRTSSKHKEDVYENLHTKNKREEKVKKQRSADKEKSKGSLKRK
Method: as §1

Chain of Tyrosine-protein phosphatase non-receptor type 13 (Q12923 whole entry): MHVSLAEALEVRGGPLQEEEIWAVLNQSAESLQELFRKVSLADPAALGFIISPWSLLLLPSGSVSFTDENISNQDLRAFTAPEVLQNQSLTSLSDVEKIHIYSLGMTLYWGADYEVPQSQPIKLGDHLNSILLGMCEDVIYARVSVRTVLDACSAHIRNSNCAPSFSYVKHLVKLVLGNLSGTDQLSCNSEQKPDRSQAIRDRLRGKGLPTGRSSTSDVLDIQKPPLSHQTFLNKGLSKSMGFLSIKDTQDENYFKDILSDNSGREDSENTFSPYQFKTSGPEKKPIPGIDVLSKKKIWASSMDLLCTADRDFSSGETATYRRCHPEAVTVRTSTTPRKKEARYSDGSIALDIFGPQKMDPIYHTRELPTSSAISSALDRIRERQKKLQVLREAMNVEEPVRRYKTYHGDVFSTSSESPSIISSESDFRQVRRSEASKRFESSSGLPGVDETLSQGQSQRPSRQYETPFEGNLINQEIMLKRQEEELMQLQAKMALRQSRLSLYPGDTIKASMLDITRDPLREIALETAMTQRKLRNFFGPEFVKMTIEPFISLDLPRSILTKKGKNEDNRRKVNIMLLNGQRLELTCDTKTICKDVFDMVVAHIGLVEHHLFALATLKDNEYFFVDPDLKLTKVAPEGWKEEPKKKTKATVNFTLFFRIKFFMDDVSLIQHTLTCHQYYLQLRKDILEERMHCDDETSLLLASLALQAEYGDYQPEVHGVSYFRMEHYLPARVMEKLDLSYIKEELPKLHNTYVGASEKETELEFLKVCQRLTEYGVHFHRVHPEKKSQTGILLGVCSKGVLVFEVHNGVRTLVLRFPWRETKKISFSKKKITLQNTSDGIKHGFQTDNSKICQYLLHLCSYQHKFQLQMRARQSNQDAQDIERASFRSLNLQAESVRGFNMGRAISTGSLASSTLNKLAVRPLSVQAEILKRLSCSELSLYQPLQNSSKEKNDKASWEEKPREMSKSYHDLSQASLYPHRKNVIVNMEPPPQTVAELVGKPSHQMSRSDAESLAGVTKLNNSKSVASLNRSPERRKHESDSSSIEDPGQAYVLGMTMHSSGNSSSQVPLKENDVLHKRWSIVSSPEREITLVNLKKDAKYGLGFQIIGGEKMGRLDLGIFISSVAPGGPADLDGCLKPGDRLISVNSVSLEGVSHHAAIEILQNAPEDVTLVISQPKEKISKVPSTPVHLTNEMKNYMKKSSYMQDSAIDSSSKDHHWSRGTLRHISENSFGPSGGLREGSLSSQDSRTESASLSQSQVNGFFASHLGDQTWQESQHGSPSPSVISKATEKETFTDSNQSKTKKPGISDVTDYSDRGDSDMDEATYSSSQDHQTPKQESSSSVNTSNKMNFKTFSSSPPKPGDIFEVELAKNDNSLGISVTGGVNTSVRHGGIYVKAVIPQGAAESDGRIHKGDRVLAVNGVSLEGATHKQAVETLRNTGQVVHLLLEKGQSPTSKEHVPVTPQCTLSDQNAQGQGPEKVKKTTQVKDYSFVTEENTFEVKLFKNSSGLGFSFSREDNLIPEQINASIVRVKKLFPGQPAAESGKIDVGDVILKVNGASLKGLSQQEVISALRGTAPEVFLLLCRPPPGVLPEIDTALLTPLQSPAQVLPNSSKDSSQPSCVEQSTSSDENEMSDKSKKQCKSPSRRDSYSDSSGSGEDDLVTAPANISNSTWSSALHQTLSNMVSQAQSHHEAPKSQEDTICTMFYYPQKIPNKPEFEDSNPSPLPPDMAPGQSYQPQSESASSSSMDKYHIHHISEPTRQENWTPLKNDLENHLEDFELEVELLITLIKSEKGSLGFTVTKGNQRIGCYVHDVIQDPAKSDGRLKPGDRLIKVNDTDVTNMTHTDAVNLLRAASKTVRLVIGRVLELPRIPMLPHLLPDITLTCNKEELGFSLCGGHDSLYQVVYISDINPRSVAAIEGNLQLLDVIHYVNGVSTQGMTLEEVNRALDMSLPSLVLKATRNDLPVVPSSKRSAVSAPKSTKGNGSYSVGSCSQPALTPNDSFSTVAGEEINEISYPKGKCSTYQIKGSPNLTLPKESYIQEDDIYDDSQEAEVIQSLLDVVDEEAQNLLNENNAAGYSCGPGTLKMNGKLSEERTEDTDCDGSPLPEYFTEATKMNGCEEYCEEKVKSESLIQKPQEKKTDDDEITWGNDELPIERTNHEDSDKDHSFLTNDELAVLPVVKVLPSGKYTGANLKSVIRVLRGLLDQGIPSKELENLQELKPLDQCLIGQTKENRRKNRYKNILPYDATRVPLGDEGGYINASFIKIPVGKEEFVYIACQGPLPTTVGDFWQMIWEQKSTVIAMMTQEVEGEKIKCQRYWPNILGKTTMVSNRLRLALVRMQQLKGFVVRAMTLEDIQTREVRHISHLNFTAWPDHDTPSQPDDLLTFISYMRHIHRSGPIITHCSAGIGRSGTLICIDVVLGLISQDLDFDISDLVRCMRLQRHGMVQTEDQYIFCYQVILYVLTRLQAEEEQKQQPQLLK

SMILES	IC50 [5] [µM]	also measured
COc1cc(/C=C2\SC(=S)N(c3cccc(Cl)c3)C2=O)cc([N+](=O)[O-])c1O [Thioxothiazolidinone derivative, 1]	–	IC50 [1]: 3.7 µM; IC50 [2]: > 50 µM; IC50 [3]: 5.3 µM; IC50 [4]: 9.3 µM; IC50 ([5]; pH 6): 4.3 µM; IC50 ([5]; pH 7): 4.1 µM; IC50 [6]: > 50 µM; IC50 [7]: 3.9 µM
COc1cc(/C=C2\SC(=S)N(c3ccc(Cl)cc3)C2=O)cc([N+](=O)[O-])c1O [Thioxothiazolidinone derivative, 4]	5.4	–
COc1cc(/C=C2\SC(=S)N(c3cccc(F)c3)C2=O)cc([N+](=O)[O-])c1O [Thioxothiazolidinone derivative, 5]	12	–
COc1cccc(N2C(=O)/C(=C/c3cc(OC)c(O)c([N+](=O)[O-])c3)SC2=S)c1 [Thioxothiazolidinone derivative, 7]	16	–
COc1cc(/C=C2\SC(=S)N(c3ccc(C)cc3)C2=O)cc([N+](=O)[O-])c1O [Thioxothiazolidinone derivative, 9]	8.8	–
COc1ccc(N2C(=O)/C(=C/c3cc(OC)c(O)c([N+](=O)[O-])c3)SC2=S)cc1 [Thioxothiazolidinone derivative, 10]	6.3	–
COc1cc(/C=C2\SC(=S)N(c3ccc([N+](=O)[O-])cc3)C2=O)cc([N+](=O)[O-])c1O [Thioxothiazolidinone derivative, 11]	7	–
COc1cc(/C=C2\SC(=S)N(c3ccc(Cl)c(Cl)c3)C2=O)cc([N+](=O)[O-])c1O [Thioxothiazolidinone derivative, 12]	7	–
O=C1/C(=C/c2cc(O)c(O)c([N+](=O)[O-])c2)SC(=S)N1c1cccc(Cl)c1 [Thioxothiazolidinone derivative, 15]	18.1	–
COc1cc(/C=C2\SC(=S)N(c3cccc(Cl)c3)C2=O)cc(C(=O)O)c1O [Thioxothiazolidinone derivative, 17]	7.3	–
COc1cc(C=C2SC(=S)N(c3cccc(Cl)c3)C2=O)cc(CP(=O)(O)O)c1O [Thioxothiazolidinone derivative, 18]	> 100	–

Continued, in another order:

IC50 [5] [µM]	SMILES	also measured
> 100	COc1cc(/C=C2\SC(=S)N(c3ccccc3)C2=O)cc([N+](=O)[O-])c1O [Thioxothiazolidinone derivative, 3]	–
29	COc1cc(/C=C2\SC(=S)N(c3cccc(C)c3)C2=O)cc([N+](=O)[O-])c1O [Thioxothiazolidinone derivative, 6]	–
29	COc1cc(/C=C2\SC(=S)N(c3ccc(O)cc3)C2=O)cc([N+](=O)[O-])c1O [Thioxothiazolidinone derivative, 8]	–
68	O=C1/C(=C/c2ccc(O)c([N+](=O)[O-])c2)SC(=S)N1c1cccc(Cl)c1 [Thioxothiazolidinone derivative, 13]	–
44	COc1cc(/C=C2\SC(=S)N(c3cccc(Cl)c3)C2=O)ccc1O [Thioxothiazolidinone derivative, 14]	–
